Our source for the IC50 values is patent US11198695B2, “Fused ring derivative having MGAT-2 inhibitory activity” (Shionogi & Co., Ltd., priority 2017, dated 2021).

In this assay the target is recombinant human MGAT2 (Homo sapiens (Human), UniProt Q3SYC2). Put plainly: Measurement of human MGAT2 inhibitory activity. Type of assay: biochemical. The note with it: read-out: IC50 (concentration exhibiting 50% enzyme inhibition), Table 53. A digest of the protocol: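 RapidFire ESI-MS read-out of the diolein/diolein-d5 peak ratio gave % inhibition, with no-enzyme and full-enzyme wells as 100% and 0%. Reactions ran 1 h at room temperature at pH 7.4 (phosphate, 2 mmol/L DTT), using Flag-tagged human MGAT2 membranes from Sf9 cells and a substrate solution of 30 μmol/L 2-oleoylglycerol and 10 μmol/L oleoyl-CoA.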
recombinant human MGAT2, sequence (Q3SYC2 whole entry): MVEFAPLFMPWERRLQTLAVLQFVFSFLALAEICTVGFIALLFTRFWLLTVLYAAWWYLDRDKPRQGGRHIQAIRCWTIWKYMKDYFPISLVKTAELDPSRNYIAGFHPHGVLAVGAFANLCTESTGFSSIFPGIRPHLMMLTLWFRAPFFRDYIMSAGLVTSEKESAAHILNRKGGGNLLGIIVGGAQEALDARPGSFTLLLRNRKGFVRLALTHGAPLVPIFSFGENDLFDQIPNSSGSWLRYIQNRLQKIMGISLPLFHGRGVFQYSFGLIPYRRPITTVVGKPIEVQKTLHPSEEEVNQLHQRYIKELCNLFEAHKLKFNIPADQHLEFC
For `N#Cc1ccc(-n2nc3c(c2C(=O)N[C@H]2C[C@H](O)C2)C(=O)N[C@@]2(CCc4cc(OCC(F)(F)F)ccc42)C3)nc1` [II-117], the IC50 was determined as 37.9 nM.

With `N#Cc1ccc(-n2nc3c(c2C(=O)NCC2(O)COC2)C(=O)N[C@@]2(CCc4cc(OCC(F)(F)F)ccc42)C3)nc1` [II-118], the IC50 was 6.26 nM.

Consider `N#Cc1ccc(-n2nc3c(c2C(=O)NCC2(O)CCOC2)C(=O)N[C@@]2(CCc4cc(OCC(F)(F)F)ccc42)C3)nc1` (stereo partly drawn) [II-119], for which the IC50 was found to be 26.8 nM.

On to `Cc1ccc(-n2nc3c(c2NC(=O)CS(C)(=O)=O)C(=O)N[C@@]2(CCc4cc(N5CC(F)(F)C5)ccc42)C3)nc1` [II-120], for which the IC50 is 9.29 nM.

As to `Cc1ccc(-n2nc3c(c2NC(=O)CS(C)(=O)=O)C(=O)N[C@@]2(CCc4cc(C(F)(F)F)ccc42)C3)nc1` [II-122], the IC50 stood at 5.68 nM.

Turning to `COCCCNC(=O)c1c2c(nn1-c1ccc(C#N)cn1)C[C@]1(CCc3cc(OCC(F)(F)F)ccc31)NC2=O` [II-123], the IC50 is 21.7 nM.

`N#Cc1ccc(-n2nc3c(c2C(=O)NCC(F)(F)F)C(=O)N[C@@]2(CCc4cc(OCC(F)(F)F)ccc42)C3)nc1` [II-124]: the IC50 amounted to 19.6 nM.

In the case of `COCCNC(=O)c1c2c(nn1-c1ccc(C#N)cn1)C[C@]1(CCc3cc(OCC(F)(F)F)ccc31)NC2=O` [II-125], the IC50 is 63.5 nM.

As to `N#Cc1ccc(-n2nc3c(c2C(=O)NCCC(F)(F)F)C(=O)N[C@@]2(CCc4cc(OCC(F)(F)F)ccc42)C3)nc1` [II-126], the IC50 came out at 12.7 nM.

In the case of `N#Cc1ccc(-n2nc3c(c2C(=O)NCC(N)=O)C(=O)N[C@@]2(CCc4cc(OCC(F)(F)F)ccc42)C3)nc1` [II-127], the IC50 came out at 39.2 nM.

For the compound `N#CCNC(=O)c1c2c(nn1-c1ccc(C#N)cn1)C[C@]1(CCc3cc(OCC(F)(F)F)ccc31)NC2=O` [II-128], the IC50 amounted to 10.2 nM.

In the case of `N#Cc1ccc(-n2nc3c(c2C(=O)NCC(O)c2ccccn2)C(=O)N[C@@]2(CCc4cc(OCC(F)(F)F)ccc42)C3)nc1` (stereo partly drawn) [II-129], the IC50 stood at 202 nM.

Take `N#Cc1ccc(-n2nc3c(c2C(=O)N[C@H]2CC[C@H](O)CC2)C(=O)N[C@@]2(CCc4cc(OCC(F)(F)F)ccc42)C3)nc1` [II-130]: the IC50 was found to be 130 nM.

As to `N#Cc1ccc(-n2nc3c(c2C(=O)NCC2(CO)CC2)C(=O)N[C@@]2(CCc4cc(OCC(F)(F)F)ccc42)C3)nc1` [II-131], the IC50 was found to be 5.79 nM.

With `N#Cc1ccc(-n2nc3c(c2C(=O)NC2CCNC2=O)C(=O)N[C@@]2(CCc4cc(OCC(F)(F)F)ccc42)C3)nc1` (stereo partly drawn) [II-132], the IC50 is 193 nM.

For the compound `N#Cc1ccc(-n2nc3c(c2C(=O)N[C@H]2CC[C@@H](O)C2)C(=O)N[C@@]2(CCc4cc(OCC(F)(F)F)ccc42)C3)nc1` [II-133], the IC50 was 188 nM.

`N#Cc1ccc(-n2nc3c(c2C(=O)NCCS(N)(=O)=O)C(=O)N[C@@]2(CCc4cc(OCC(F)(F)F)ccc42)C3)nc1` [II-134]: the IC50 was determined as 17.2 nM.

Take `CC(C)(O)CNC(=O)c1c2c(nn1-c1ccc(C#N)cn1)C[C@]1(CCc3cc(OCC(F)(F)F)ccc31)NC2=O` [II-135]: the IC50 is 60.6 nM.

As for `Cc1ccc(-n2nc3c(c2NC(=O)CS(C)(=O)=O)C(=O)N[C@@]2(CCc4cc(OCC(F)(F)F)ccc42)C3)cc1F` [II-136], the IC50 was 7.42 nM.

In the case of `CS(=O)(=O)CC(=O)Nc1c2c(nn1-c1ccc(Cl)c(F)c1)C[C@]1(CCc3cc(OCC(F)(F)F)ccc31)NC2=O` [II-137], the IC50 is 4.79 nM.

Regarding `Cc1ccc(-n2nc3c(c2NC(=O)CS(C)(=O)=O)C(=O)N[C@@]2(CCc4cc(OCC(F)(F)F)ccc42)C3)cn1` [II-138], the IC50 was determined as 45.7 nM.

On to `Cc1cc(-n2nc3c(c2NC(=O)CS(C)(=O)=O)C(=O)N[C@@]2(CCc4cc(OCC(F)(F)F)ccc42)C3)nnc1C` [II-139], for which the IC50 is 3.15 nM.

Regarding `Cc1cnnc(-n2nc3c(c2NC(=O)CS(C)(=O)=O)C(=O)N[C@@]2(CCc4cc(OCC(F)(F)F)ccc42)C3)c1` [II-140], the IC50 stood at 6.4 nM.

On to `CS(=O)(=O)CC(=O)Nc1c2c(nn1-c1ccc(OC(F)F)cc1)C[C@]1(CCc3cc(OCC(F)(F)F)ccc31)NC2=O` [II-141], for which the IC50 came to 12.8 nM.

As to `CS(=O)(=O)CC(=O)Nc1c2c(nn1-c1ccc(C#N)cn1)C[C@]1(CCc3cc(C(F)(F)F)ccc31)NC2=O` [II-142], the IC50 came out at 4.03 nM.

As to `CS(=O)(=O)CC(=O)Nc1c2c(nn1-c1ccc(C#N)cn1)C[C@]1(CCc3cc(OCC(F)(F)F)ccc31)NC2=O` [II-143], the IC50 came to 0.706 nM.

Consider `CS(=O)(=O)CC(=O)Nc1c2c(nn1-c1ccc(C#N)cn1)C[C@]1(CCc3cc(OCC(F)(F)F)c(F)cc31)NC2=O` [II-144], for which the IC50 worked out at 1.05 nM.

With `CCOc1ccc2c(c1)OCC[C@]21Cc2nn(-c3ccc(C)cn3)c(NC(=O)CS(C)(=O)=O)c2C(=O)N1` [II-145], the IC50 is 6.43 nM.

For `Cc1ccc(-n2nc3c(c2NC(=O)CS(C)(=O)=O)C(=O)N[C@@]2(CCOc4cc(OCC(F)F)ccc42)C3)nc1` [II-146], the IC50 is 2.55 nM.

Take `Cc1ccc(-n2nc3c(c2NC(=O)CS(C)(=O)=O)C(=O)N[C@@]2(CCOc4cc(Cl)ccc42)C3)nc1` [II-147]: the IC50 worked out at 4.92 nM.

For the compound `Cc1cc(-n2nc3c(c2NC(=O)CS(C)(=O)=O)C(=O)N[C@@]2(CCc4cc(OCC(F)(F)F)ccc42)C3)ccc1C#N` [II-148], the IC50 is 12.3 nM.

As for `Cc1cc(-n2nc3c(c2NC(=O)CS(C)(=O)=O)C(=O)N[C@@]2(CCc4cc(OCC(F)(F)F)ccc42)C3)ccc1F` [II-149], the IC50 stood at 9.01 nM.

Take `Cc1cc(-n2nc3c(c2NC(=O)CS(C)(=O)=O)C(=O)N[C@@]2(CCOc4cc(OCC(F)(F)F)ccc42)C3)no1` [II-150]: the IC50 is 1.33 nM.

For `CS(=O)(=O)CC(=O)Nc1c2c(nn1CCC1CC1)C[C@]1(CCc3cc(OCC(F)(F)F)c(F)cc31)NC2=O` [II-152], the IC50 was found to be 1.96 nM.

`Cc1ccc(-n2nc3c(c2NC(=O)CS(C)(=O)=O)C(=O)N[C@@]2(CCOc4cc(OC(C)C)ccc42)C3)nc1` [II-153]: the IC50 was 4.94 nM.

`Cc1ccc(-n2nc3c(c2NC(=O)CS(C)(=O)=O)C(=O)N[C@@]2(CCOc4cc(N5CC(F)(F)C5)ccc42)C3)nc1` [II-154]: the IC50 worked out at 5.58 nM.

With `Cc1ccc(-n2nc3c(c2NC(=O)CS(C)(=O)=O)C(=O)N[C@@]2(CCc4cc(C5CC5)ccc42)C3)nc1` [II-156], the IC50 worked out at 3.6 nM.

As to `Cc1ccc(-n2nc3c(c2NC(=O)CS(C)(=O)=O)C(=O)N[C@@]2(CCc4cc(OCC(C)(F)F)ccc42)C3)nc1` [II-157], the IC50 was 3.83 nM.

With `Cc1ccc(-n2nc3c(c2NC(=O)CS(C)(=O)=O)C(=O)N[C@@]2(CCc4cc(OCC(F)F)ccc42)C3)nc1` [II-158], the IC50 was found to be 8.06 nM.

Take `CCOc1ccc2c(c1)CC[C@]21Cc2nn(-c3ccc(C)cn3)c(NC(=O)CS(C)(=O)=O)c2C(=O)N1` [II-159]: the IC50 is 7.02 nM.

`Cc1ccc(-n2nc3c(c2NC(=O)CS(C)(=O)=O)C(=O)N[C@@]2(CCc4cc(OC(C)C)ccc42)C3)nc1` [II-160]: the IC50 worked out at 7.69 nM.

On to `Cc1ccc(-n2nc3c(c2NC(=O)CS(C)(=O)=O)C(=O)N[C@@]2(CCc4cc(OCC(C)(C)F)ccc42)C3)nc1` [II-161], for which the IC50 came to 4.67 nM.

As for `Cc1ccc(-n2nc3c(c2NC(=O)CS(C)(=O)=O)C(=O)N[C@@](c2ccc(OCC(F)(F)F)cc2F)(C(F)(F)F)C3)nc1` [II-162], the IC50 worked out at 5.67 nM.

Regarding `CS(=O)(=O)CC(=O)Nc1c2c(nn1-c1ccc(C#N)cn1)C[C@]1(CCc3c1ccc(OCC(F)(F)F)c3F)NC2=O` [II-163], the IC50 is 6.1 nM.

Turning to `Cc1ccc(-n2nc3c(c2NC(=O)CS(C)(=O)=O)C(=O)N[C@@]2(CCc4cc(Cl)ccc42)C3)nc1` [II-164], the IC50 came to 7.55 nM.

For `Cc1ccc(-n2nc3c(c2NC(=O)CS(C)(=O)=O)C(=O)N[C@@]2(CCc4ccccc42)C3)nc1` [II-165], the IC50 came to 26.9 nM.

Regarding `CS(=O)(=O)CC(=O)Nc1c2c(nn1CCC1CC1)C[C@]1(CCc3c1ccc(OCC(F)(F)F)c3F)NC2=O` [II-166], the IC50 is 20.8 nM.

With `Cc1cc(-n2nc3c(c2NC(=O)CS(C)(=O)=O)C(=O)N[C@](C)(c2ccc(OCC(F)(F)F)cc2F)C3)no1` [II-167], the IC50 was determined as 3.63 nM.

Take `Cc1cc(-n2nc3c(c2NC(=O)CS(C)(=O)=O)C(=O)N[C@@]2(CCc4cc(OCC(F)(F)F)ccc42)C3)on1` [II-169]: the IC50 was found to be 7.38 nM.

Regarding `CNC(=O)c1c2c(nn1-c1ccc(C#N)cn1)C[C@]1(CCc3cc(OCC(F)(F)F)ccc31)NC2=O` [II-170], the IC50 is 46.7 nM.

Regarding `Cc1ccc(-n2nc3c(c2C(=O)NCCS(N)(=O)=O)C(=O)N[C@@]2(CCc4cc(OCC(F)(F)F)ccc42)C3)nc1` [II-171], the IC50 came to 9.64 nM.

For the compound `CS(=O)(=O)CC(=O)Nc1c2c(nn1-c1ccc(C#N)cn1)C[C@]1(CCc3cc(C4CC4)ccc31)NC2=O` [II-172], the IC50 came out at 1.46 nM.

`CS(=O)(=O)CC(=O)Nc1c2c(nn1CCCOC(F)F)C[C@]1(CCc3cc(OCC(F)(F)F)ccc31)NC2=O` [II-173]: the IC50 came out at 1.34 nM.

As for `CS(=O)(=O)CC(=O)Nc1c2c(nn1-c1ccccc1)C[C@]1(CCc3cc(OCC(F)(F)F)ccc31)NC2=O` [II-175], the IC50 was 25.4 nM.

In the case of `Cc1ccc(-n2nc3c(c2NC(=O)CS(C)(=O)=O)C(=O)N[C@](C)(c2ccc(Cl)cc2F)C3)nc1` [II-176], the IC50 is 8.32 nM.

Turning to `Cc1ccc(-n2nc3c(c2NC(=O)CS(C)(=O)=O)C(=O)N[C@](C)(c2ccc(N4CC(F)(F)C4)cc2F)C3)nc1` [II-177], the IC50 amounted to 5.86 nM.

With `N#Cc1ccc(-n2nc3c(c2C(=O)NCCF)C(=O)N[C@@]2(CCc4cc(OCC(F)(F)F)ccc42)C3)nc1` [II-178], the IC50 turned out to be 59.7 nM.

As to `N#Cc1ccc(-n2nc3c(c2C(=O)NCC2CC2)C(=O)N[C@@]2(CCc4cc(OCC(F)(F)F)ccc42)C3)nc1` [II-179], the IC50 was 10.1 nM.

On to `N#Cc1ccc(-n2nc3c(c2C(=O)NCCO)C(=O)N[C@@]2(CCc4cc(OCC(F)(F)F)ccc42)C3)nc1` [II-180], for which the IC50 came out at 58.5 nM.

`CNC(=O)CNC(=O)c1c2c(nn1-c1ccc(C#N)cn1)C[C@]1(CCc3cc(OCC(F)(F)F)ccc31)NC2=O` [II-181]: the IC50 was 28.7 nM.
